Experimental data as given in US20220296616A1, “SHP1 AND SHP2 INHIBITORS AND THEIR METHODS OF USE” (Tiaki Therapeutics Inc., priority 2019, published 2022).

Key:
[1] = tested on: matrix remodeling genes (mmp9, mmp16, mmp12, mmp2, mmp14); experiment: Expression of matrix remodeling genes in organotypic cortical brain slice cultures; type: cell-based, mice
Experimental: (§1) The treatment of organotypic cortical brain slice cultures from adult mice with Compound A for 48 h was associated with reductions in expression of matrix remodeling genes (mmp9, mmp16, mmp12; n=3-9, see FIG. 1A showing results of dosing of Compound A at 5 nM, 50 nM, 500 nM, and 5 μM) and total MMP12 protein (n=3-6, see FIG. 1B showing results of dosing of Compound A at 5 nM, 50 nM, 500 nM, and 5 μM).
(§2) The treatment of organotypic cortical brain slice cultures from adult mice with Compound B for 48 h was associated with reductions in expression of cytokine genes (egfr, i16ra, csf1r, illr1, plekho2; n=3, see FIG. 3A showing results of dosing of Compound B at 2 μM, and 20 μM) and matrix remodeling genes (mmp12, mmp2, mmp16, mmp14; n=3, see FIG. 3B showing results of dosing of Compound B at 2 μM, and 20 μM).
(§3) The treatment of organotypic brain mice cultures from adult mice with Compound C for 72 h was associated with reductions in expression of cytokine genes (egfr, i16ra, csf1r, plekho2; n=2, See FIG. 5A showing results of dosing of Compound C at 0.1 μM, 0.3 μM, and 10 μM), matrix remodeling genes (mmp12, mmp16; n=2, See FIG. 5B for results of dosing of compound C at 0.1 μM, 0.3 μM, and 10 μM), and astrocyte genes (egfr, ai464131, gdpd2, adh1l1; n=2, See FIG. 5C for results of dosing of compound C at 0.1 μM, 0.3 μM, and 10 μM), and increases in expression of neuronal marker genes (tbr1, dlx1, slc17a6, islr2; n=2, See FIG. 5D for results of dosing of compound C at 0.1 μM, 0.3 μM, and 10 μM).

[2] = tested on: astrocyte marker genes; experiment: Expression of astrocyte marker genes in organotypic cortical brain slice cultures; type: cell-based, mice
Experimental: (§4) The treatment of organotypic cortical brain slice cultures from adult mice with Compound B for 48 h was associated with reductions in expression of astrocyte marker genes (egfr, AI464131, Itga7, Gdpd2, Sox9, Aldh1l1, Entpd2; n=3, see FIG. 4A showing results of dosing of Compound B at 2 μM, and 20 μM) and increases in expression of neuronal marker genes (tbr1, Dlx1, Slc17a6, Islr2; n=3, see FIG. 4B showing results of dosing of Compound B at 2 μM, and 20 μM).
as §3

[3] = tested on: neuronal marker genes; experiment: Expression of neuronal marker genes in organotypic cortical brain slice cultures; type: cell-based, mice
Experimental: as §4, §3

[4] = tested on: cytokine genes; experiment: Expression of cytokine genes in organotypic cortical slice cultures; type: cell-based, mice
Experimental: (§5) The treatment of organotypic cortical slice cultures with Compound A for 48 h was associated with reductions in expression of cytokine genes (cx3cl1, tgfbr2, i14ra, tgfb1, tnfrsf10b, csf1r, egfr, fit1, flt4, ccl12; n=3-9, see FIG. 2A showing results of dosing of Compound A at 5 nM, 50 nM, 500 nM, and 5 μM) and pro-inflammatory cytokines like IL-33 (n=3-6, see FIG. 2B showing results of dosing of Compound A at 50 nM, 500 nM, and 5 μM).
as §2, §3

[5] = tested on: IL-33; experiment: Pro-inflammatory cytokine IL-33 in organotypic cortical slice cultures; type: cell-based, mice; conditions: 48 h, 50 nM, 500 nM, 5 μM, FIG. 2B
Experimental: as §5

[6] = tested on: MMP12 protein; experiment: Total MMP12 protein in organotypic cortical brain slice cultures; type: cell-based; conditions: organotypic cortical brain slice cultures from adult mice, 48 h, 5 nM, 50 nM, 500 nM, 5 μM; significant dose-dependence; FIG. 1B
Experimental: as §1

## CC1(N)CCN(c2cnc3c(-c4cccc(Cl)c4Cl)n[nH]c3n2)CC1 [Compound C]
[1]; organotypic brain cultures from adult mice, 72 h, 0.1 μM, 0.3 μM, 10 μM, FIG. 5B
  expression of matrix remodeling genes (mmp12, mmp16): reductions
[2]; organotypic brain cultures from adult mice, 72 h, 0.1 μM, 0.3 μM, 10 μM, FIG. 5C
  expression of astrocyte genes (egfr, ai464131, gdpd2, adh1l1): reductions
[3]; organotypic brain cultures from adult mice, 72 h, 0.1 μM, 0.3 μM, 10 μM, FIG. 5D
  expression of neuronal marker genes (tbr1, dlx1, slc17a6, islr2): increases
[4]; organotypic brain cultures from adult mice, 72 h, 0.1 μM, 0.3 μM, 10 μM, FIG. 5A
  expression of cytokine genes (egfr, i16ra, csf1r, plekho2): reductions

## O=S(=O)(O)c1ccc2cc(/N=N/c3cc(S(=O)(=O)O)c4cccnc4c3O)ccc2c1 [Compound B]
[1]; organotypic cortical brain slice cultures from adult mice, 48 h, 2 μM and 20 μM, FIG. 3B
  expression of matrix remodeling genes (mmp12, mmp2, mmp16, mmp14): reductions
[2]; organotypic cortical brain slice cultures from adult mice, 48 h, 2 μM and 20 μM, FIG. 4A
  expression of astrocyte marker genes (egfr, AI464131, Itga7, Gdpd2, Sox9, Aldh1l1, Entpd2): reductions
[3]; organotypic cortical brain slice cultures from adult mice, 48 h, 2 μM and 20 μM, FIG. 4B
  expression of neuronal marker genes (tbr1, Dlx1, Slc17a6, Islr2): increases
[4]; organotypic cortical brain slice cultures from adult mice, 48 h, 2 μM and 20 μM, FIG. 3A
  expression of cytokine genes (egfr, i16ra, csf1r, illr1, plekho2): reductions

## Cc1nc(N2CCC3(CC2)CO[C@@H](C)[C@H]3N)c(CO)nc1-c1cccc(Cl)c1Cl [Compound A]
[5]
  expression of pro-inflammatory cytokines like IL-33: reductions
[1]; organotypic cortical brain slice cultures from adult mice, 48 h, 5 nM, 50 nM, 500 nM, 5 μM, significant dose-dependence, FIG. 1A
  expression of matrix remodeling genes (mmp9, mmp16, mmp12): reductions
[6]
  total MMP12 protein: reductions
[4]; organotypic cortical slice cultures, 48 h, 5 nM, 50 nM, 500 nM, 5 μM, FIG. 2A
  expression of cytokine genes (cx3cl1, tgfbr2, i14ra, tgfb1, tnfrsf10b, csf1r, egfr, fit1, flt4, ccl12): reductions
